According to US20150299277A1, “AGENT FOR TREATING OR PREVENTING SYSTEMIC INFLAMMATORY RESPONSE SYNDROME” (THE UNIVERSITY OF TOKYO, priority 2012, published 2015):
“Also recorded” adds a separate entry of the source.

Assays:
[1] = tested on: each histone; assay: ELISA binding assay; set-up: species or system human; conditions: buffers containing 4 mM CaCl2 or 4 mM EDTA
Method: Recombinant human histone (NEB) was adjusted to a concentration of 1 μg/mL in TBS, added to a 96 well ELISA plate, and immobilized at 4° C. overnight. The solution was discarded, a blocking buffer (TBS, 0.1% Triton-X100, 1% BSA) was added, and the plate was incubated at room temperature for 2 hr. The plate was washed four times with a wash buffer (TBS, 0.1% Triton-X100), recombinant PTX3 diluted to various concentrations with the blocking buffer was added to each well, and reacted at room temperature for 1 hr. After washing four times with the wash buffer, HRP-labeled antibody diluted with the blocking buffer was added, and reacted at room temperature for 1 hr. After washing four times with the wash buffer, TMB solution was added to carry out a color development reaction for 30 min, and the absorbance at 450 nm was measured. […]
The binding level between immobilized each recombinant histone and tag-free recombinant human PTX3 (rhPTX3) was measured by binding assay (ELISA). […] ELISA was performed with duplicate wells for each point, and means and standard deviations were calculated from three independent experiments.
The binding level between immobilized each recombinant histone and a tagged human PTX3 fragment was measured by binding assay (ELISA). […] ELISA was performed with duplicate wells for each point, and means and standard deviations were calculated from three independent experiments.

[2] = tested on: each recombinant histone on HUVEC; assay: Cytotoxic assay: suppression of histone cytotoxicity on HUVEC; type: cell-based, human; conditions: 1 hr culture, PI staining, FACS
Method: (§1) Normal human umbilical vein endothelial cells (HUVECs) were cultured in EGM2 medium (Clonetics). The cells after culture were washed with PBS, added with Opti-MEM medium containing an product of incubation of activated protein C (APC), PTX3, C reactive protein (CRP) or Serum amyloid P component (SAP) with histone for 1 hr, and the cells were further cultured for 1 hr. Propidium iodide (PI) was added to the medium after culture at a final concentration of 10 μg/mL, and the cells were stained for 10 min. The cells were washed with PBS, detached and analyzed by flow cytometry.
(§2) Using each recombinant histone instead of Calf Thymus Histones, a suppressive effect of full-length PTX3 or the N-terminal domain of PTX3 on histone cytotoxicity was studied in the same manner.

[3] = tested on: Calf Thymus Histones; assay: Dose-dependent precipitate formation (supernatant after centrifugation); type: binding; conditions: PTX3 0, 12.5, 25, 50 μg/mL; histones 50 μg/mL
Method: (§3) Full-length PTX3 at each concentration (0, 12.5, 25, 50 μg/mL) was mixed with Calf Thymus Histones (50 μg/mL) or histone H4 (50 μg/mL), and the mixture was centrifuged. The obtained supernatant was subjected to immunoblotting using PPZ-1228 or SYPRO Ruby staining.

[4] = target: T1, histone H4 (Homo sapiens, UniProt P62805); assay: as above; type: binding; conditions: PTX3 0, 12.5, 25, 50 μg/mL; histone H4 50 μg/mL
Method: as §3

[5] = target: T1, histone H4; assay: PTX3-histone aggregation, UV-visible absorption spectrum (310 nm); type: binding; set-up: purchased NEB; conditions: PTX3 at various concentrations mixed with histone H4
Method: 0.1 mg/mL human histone H4 was mixed with equal volume of various concentrations of Myc-tagged full-length PTX3, and UV-visible absorption spectrum was measured. A graph of absorbance at 310 nm is shown at the top.
Full-length PTX3 at each concentration was mixed with 50 μg/mL histone H4, and UV-visible absorption spectrum (wavelength 310 nm) was measured.

[6] = target: T2, histone H2A (Homo sapiens, UniProt Q7L7L0); assay: ELISA binding assay; conditions: immobilized recombinant histone
T2 construct: purchased NEB
Method: (§4) Recombinant human histone (NEB) was adjusted to a concentration of 1 μg/mL in TBS, added to a 96 well ELISA plate, and immobilized at 4° C. overnight. The solution was discarded, a blocking buffer (TBS, 0.1% Triton-X100, 1% BSA) was added, and the plate was incubated at room temperature for 2 hr. The plate was washed four times with a wash buffer (TBS, 0.1% Triton-X100), recombinant PTX3 diluted to various concentrations with the blocking buffer was added to each well, and reacted at room temperature for 1 hr. After washing four times with the wash buffer, HRP-labeled antibody diluted with the blocking buffer was added, and reacted at room temperature for 1 hr. After washing four times with the wash buffer, TMB solution was added to carry out a color development reaction for 30 min, and the absorbance at 450 nm was measured. Assay was performed using all the buffers containing 4 mM CaCl2 or 4 mM EDTA.
(§5) The binding level between immobilized each recombinant histone and a tagged human PTX3 fragment was measured by binding assay (ELISA). For detection, HRP-labeled anti-His (6×His) antibody was used. ELISA was performed with duplicate wells for each point, and means and standard deviations were calculated from three independent experiments.

[7] = target: T3, histone H2B (Homo sapiens, UniProt Q16778); assay: ELISA binding assay; conditions: immobilized recombinant histone
T3 construct: purchased NEB
Method: as §4, §5

[8] = tested on: histone H4 on HUVEC; assay: Cytotoxic assay: suppression of histone cytotoxicity on HUVEC; type: cell-based, human; conditions: 1 hr culture, PI staining, FACS
Method: as §1, §2
Lastly, capacity of suppressing the cytotoxic activity of histone was confirmed. Since this experiment requires a certain amount of protein and an endotoxin-elimination as treatment, a protein was expressed and purified at a 500 mL culture scale, and subjected to an endotoxin-elimination treatment (FIG. 18). In the case of PTX3 N-terminal domain, about 10 mg was obtained at a 500 mL culture scale, and a loss by the endotoxin-elimination treatment was scarcely observed. […] A capacity of fragment proteins obtained at a 500 mL scale on HUVEC to suppress histone cytotoxicity was studied. […]

[9] = tested on: mice intraperitoneally administered with LPS; assay: LPS-administered mouse; type: in vivo
Method: At 0, 6 and 24 hr from the LPS administration, heparin plasma was collected, and the concentrations of mouse IL-6 and mouse VEGF were measured using ELISA kit (R&D).
The survival rate of the mice intraperitoneally administered with LPS at a concentration of 16 mg/kg is shown. The N-terminal domain of PTX3 (5 mg/kg) or control buffer was intraperitoneally administered 2 hr prior to LPS administration. In addition, the time-course changes in the plasma IL-6 and VEGF levels of the LPS-administrated mice treated with the N-terminal domain of PTX3 were measured by ELISA.

[10] = tested on: mouse subjected to cecal ligation and puncture (CLP); assay: Cecal ligation and puncture (CLP) mouse; type: in vivo; conditions: 5 mg/kg with gentamicin 5 mg/kg, 4 hr after CLP, versus gentamicin alone
Method: For cecal ligation and puncture (CLP) treatment, male C57BL/6 mouse was anesthetized, laparotomy was performed, and cecum was exposed and ligated. A hole is made with an injection needle at the middle between the ligated site and cecum peripheral site, and the abdomen is closed. Four hours from the CLP treatment, the N-terminal domain of PTX3 (5 mg/kg) and gentamicin (5 mg/kg), or gentamicin (5 mg/kg) alone were(was) administered to the mouse.
Mouse was subjected to cecal ligation and puncture (CLP) treatment and, 4 hr later from the treatment, the N-terminal domain of PTX3 (5 mg/kg) and gentamicin (5 mg/kg), or gentamicin (5 mg/kg) alone were(was) administered to the mouse.

[11] = target: T1, histone H4; assay: CD spectrum of histone H4-PTX3 complex
Method: The CD spectrum of the histone H4-PTX3 complex was measured. The N-terminal domain of PTX3 (25 μg/mL) and histone H4 (5 μg/mL) were each independently measured, and further, the histone H4-PTX3 mixture was measured (FIG. 6D).

[12] = LPS-administrated mice, 5 mg/kg, ELISA

Substance: full-length PTX3: full-length human pentraxin 3 (1-381 amino acids, SEQ ID NO: 2), used tag-free or Myc- and His-tagged
- influence of calcium ion on binding to each histone [1]: stronger binding was found in the presence of calcium ion
- suppression of toxic activity of each recombinant histone on HUVEC [2]: suppressed
- precipitate formation with Calf Thymus Histones [3]: precipitated as an insoluble product
- precipitate formation with histone H4 [4]: precipitated as an insoluble product
- aggregation with histone H4, UV-visible absorption spectrum [5]: dose-dependent spectrum

Substance: N-terminal domain of PTX3: N-terminal domain human PTX3 (18-178 amino acids, SEQ ID NO: 3), tagged, expressed in CHO cells or Escherichia coli
- bindability to histone H2A (binding assay) [6]: lower than that of the full-length PTX3
- bindability to histone H2B (binding assay) [7]: lower than that of the full-length PTX3
- influence of calcium ion on binding to each histone [1]: stronger binding was found in the presence of calcium ion
- suppression of toxic activity of histone H4 on HUVEC [8]: suppress; also recorded: suppressed
- inflammatory reaction caused by LPS administration (biochemical study of blood) ([9]; 5 mg/kg intraperitoneally 2 hr prior to LPS 16 mg/kg): suppressed
- mortality due to LPS administration ([9]; 5 mg/kg intraperitoneally 2 hr prior to LPS 16 mg/kg, C57BL/6 mice): significantly improved mortality
- plasma IL-6 level [9, 12]: suppressed
- plasma VEGF level [9, 12]: suppressed
- mortality due to the CLP treatment [10]: significantly improved
- CD spectrum, mixed with histone H4 ([11]; 25 μg/mL with histone H4 5 μg/mL): did not afford a spectrum pattern showing a general secondary structure
- CD spectrum, alone ([11]; 25 μg/mL, measured independently): a spectrum pattern having α-helix in the secondary structure
